Test results published in patent US6462072B1, “Cyclic ester or amide derivatives” (GPI NIL Holdings, Inc., priority 1998, dated 2002).

Biological target: FKBP (Homo sapiens, UniProt P62942)
Experiment: Ki test procedure: inhibition of peptidyl-prolyl isomerase (rotamase) activity, chymotrypsin-coupled assay
Format: biochemical
Conditions: read-out: Ki (apparent Ki, rotamase inhibition)
From the text: Inhibition of the peptidyl-prolyl isomerase (rotamase) activity of the inventive compounds can be evaluated by known methods described in the literature (Harding, M. W. et al. Nature 341: 758-760 (1989); Holt et al. J. Am. Chem. Soc. 115: 9923-9938). These values are obtained as apparent Ki's and are presented in Table I. The cis-trans isomerization of an alanine-proline bond in a model substrate, N-succinyl-Ala-Ala-Pro-Phe-p-nitroanilide, is monitored spectro-photometrically in a chymotrypsin-coupled assay, which releases para-nitroanilide from the trans form of the substrate. The inhibition of this reaction caused by the addition of different concentrations of inhibitor is determined, and the data is analyzed as a change in first-order rate constant as a function of inhibitor concentration to yield the apparent Kivalues.
In a plastic cuvette are added […] of ice cold assay buffer (25 mM HEPES, pH 7.8, 100 mM NaCl), […] of FKBP (2.5 mM in 10 mM Tris-Cl pH 7.5, 100 mM NaCl, 1 mM dithiothreitol), […] of chymotrypsin (50 mg/mL in 1 mM HCl) and 10 mL of test compound at various concentrations in dimethyl sulfoxide. […]
The absorbance at 390 nm versus time is monitored for 90 sec using a spectrophotometer and the rate constants are determined from the absorbance versus time data files.

Chain of FKBP (P62942 whole entry): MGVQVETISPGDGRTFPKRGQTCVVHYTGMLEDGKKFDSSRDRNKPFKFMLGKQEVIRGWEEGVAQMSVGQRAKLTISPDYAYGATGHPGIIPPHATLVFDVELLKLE

Ki: 5.64 µM
Compound: CCC(C)(C)C(=O)C(=O)N1CCC[C@H]1C(=O)OC1CCC(c2ccccc2)(c2ccccc2)CC1 [4,4-diphenylcyclohexl (2S)-1-(3,3-dimethyl-2-oxopentanoyl)-pyrrolidine-2-carboxylate]
